system: NMNAT2; test: NMNAT2-Hibit nano-luciferase activity in stably transfected U87MG cells, various concentrations, 24 hours; format: cell-based; conditions: U87MG cells stably transfected with NMNAT2-Hibit luc plasmid
Procedure: Selected compounds were tested in vitro. U87MG cells were stably transfected with NMNAT2-Hibit luc plasmid. Cells were treated with a test compound at various concentrations for 24 hours. Cells were then collected and assayed for nano-luciferase activity.

| Compound | E: compound efficacy for NMNAT2 activation (concentration giving >25% increase in NMNAT2 luciferase activity) |
| --- | --- |
| Cc1ccc(C)c(Cn2cc3c4c(cccc42)C(=O)NCC3)c1 [BC20313] | + (“+” >25% increase in NMNAT2 luciferase activity at >25 μM.) |
| Cc1ccc(C)c(Cn2cc([C@H]3C[C@@H]3C(=O)NC(C)Cc3ccco3)c3ccccc32)c1 (mixture of isomers) [BC20363] | ++ (“++” >25% increase in NMNAT2 luciferase activity at >1 μM ≤25 μM.) |
| Cc1ccc(CNC(=O)CCCc2cn(Cc3cccc(F)c3)c3ccccc23)o1 [BC20136] | ++ (“++” >25% increase in NMNAT2 luciferase activity at >1 μM ≤25 μM.) |
| O=C(CCCc1cn(Cc2cccc(F)c2)c2ccccc12)N1CCN(C(=O)c2ccco2)CC1 [BC20144] | ++ (“++” >25% increase in NMNAT2 luciferase activity at >1 μM ≤25 μM.) |
| Cc1ccc(C)c(Cn2c3c(c4ccccc42)CN(C(=O)Nc2cccc(C)c2C)CC3)c1 [BC20255] | + (“+” >25% increase in NMNAT2 luciferase activity at >25 μM.) |
| O=C(CCCc1cn(Cc2cccc(F)c2)c2ccccc12)NCc1cccc(F)c1 [BC20139] | ++ (“++” >25% increase in NMNAT2 luciferase activity at >1 μM ≤25 μM.) |
| Cc1ccc(C)c(Cn2cc3c4c(cccc42)C(=O)N(Cc2ccccc2C)CC3)c1 [BC20271] | + (“+” >25% increase in NMNAT2 luciferase activity at >25 μM.) |
| O=C(Cn1c2c(c3ccccc31)CC(C(=O)NCc1ccco1)CC2)NCc1cccc(F)c1 (centres unmarked) [BC20286] | ++ (“++” >25% increase in NMNAT2 luciferase activity at >1 μM ≤25 μM.) |
| COc1ccc(CNC(=O)N2CCc3c(c4ccccc4n3Cc3cccc(F)c3)C2)cc1 [BC20332] | ++ (“++” >25% increase in NMNAT2 luciferase activity at >1 μM ≤25 μM.) |
| Cc1cccc(CNC(=O)[C@H]2C[C@@H]2c2c(C)n(Cc3cc(C)ccc3C)c3ccccc23)c1 (racemic) [BC20303] | + (“+” >25% increase in NMNAT2 luciferase activity at >25 μM.) |
| Cc1ccc(Cn2c3c(c4ccccc42)C(C(=O)NCc2ccncc2)CCC3)cc1 (centres unmarked) [BC20390] | + (“+” >25% increase in NMNAT2 luciferase activity at >25 μM.) |
| O=C(c1ccco1)N1CCN(C(=O)C2CCCc3c2c2ccccc2n3Cc2cccc(F)c2)CC1 (centres unmarked) [BC20376] | + (“+” >25% increase in NMNAT2 luciferase activity at >25 μM.) |
| COc1cccc(CNC(=O)[C@H]2C[C@@H]2c2cn(Cc3cc(C)ccc3C)c3ccccc23)c1 (racemic) [BC20350] | + (“+” >25% increase in NMNAT2 luciferase activity at >25 μM.) |
| Cc1c(C)n(Cc2ccccc2F)c2ccc(C(=O)N(CCCN3CCOCC3)Cc3ccco3)cc12 [BC20263] | ++ (“++” >25% increase in NMNAT2 luciferase activity at >1 μM ≤25 μM.) |
| Cc1ccc(Cn2cc([C@H]3C[C@@H]3C(=O)NCc3cccnc3)c3ccccc32)cc1 (racemic) [BC20301] | + (“+” >25% increase in NMNAT2 luciferase activity at >25 μM.) |
| Cc1c(C)n(Cc2ccccc2F)c2ccc(C(=O)NCc3ccccc3F)cc12 [BC20103] | +++ (“+++” >25% increase in NMNAT2 luciferase activity at ≤1 μM.) |
| Cc1ccc(CNC(=O)c2ccc3c(c2)c(C)c(C)n3Cc2ccccc2C)o1 [BC20200] | ++ (“++” >25% increase in NMNAT2 luciferase activity at >1 μM ≤25 μM.) |
| O=C(Cn1c2c(c3ccccc31)CN(C(=O)NCc1ccco1)CC2)NCc1ccco1 [BC20327] | + (“+” >25% increase in NMNAT2 luciferase activity at >25 μM.) |
| Cc1cccc(NC(=O)C2CCc3c(c4ccccc4n3Cc3cccc(F)c3)C2)c1C (centres unmarked) [BC20229] | + (“+” >25% increase in NMNAT2 luciferase activity at >25 μM.) |
| Cc1c(C)n(Cc2cccc(F)c2)c2ccc(C(=O)NCc3cccc(F)c3)cc12 [BC20112] | +++ (“+++” >25% increase in NMNAT2 luciferase activity at ≤1 μM.) |
| O=C(C1CCCc2c1c1ccccc1n2Cc1cccc(F)c1)N(CCCN1CCOCC1)Cc1ccco1 (centres unmarked) [BC20382] | ++ (“++” >25% increase in NMNAT2 luciferase activity at >1 μM ≤25 μM.) |
| Cc1c(C)n(Cc2ccccc2F)c2ccc(C(=O)NCc3cccnc3)cc12 [BC20108] | +++ (“+++” >25% increase in NMNAT2 luciferase activity at ≤1 μM.) |
| COc1ccccc1CNC(=O)C1CCc2c(c3ccccc3n2Cc2ccncc2)C1 (centres unmarked) [BC20282] | + (“+” >25% increase in NMNAT2 luciferase activity at >25 μM.) |
| Cc1ccc(C)c(Cn2c3c(c4ccccc42)CN(C(=O)NCc2cccc(F)c2)CC3)c1 [BC20253] | + (“+” >25% increase in NMNAT2 luciferase activity at >25 μM.) |

| Compound | E: compound efficacy for NMNAT2 activation (concentration giving >25% increase in NMNAT2 luciferase activity) |
| --- | --- |
| COc1cccc(CNC(=O)Cn2cc(C(=O)c3ccc(Cl)cc3)c3ccccc32)c1 [BC20181] | ++ (“++” >25% increase in NMNAT2 luciferase activity at >1 μM ≤25 μM.) |
| Cc1ccc(C)c(Cn2c3c(c4ccccc42)CC(C(=O)NCc2cccnc2)CC3)c1 (centres unmarked) [BC20189] | ++ (“++” >25% increase in NMNAT2 luciferase activity at >1 μM ≤25 μM.) |
| Cc1ccc(C)c(Cn2cc([C@H]3C[C@@H]3C(=O)NCc3ccco3)c3ccccc32)c1 (racemic) [BC20344] | + (“+” >25% increase in NMNAT2 luciferase activity at >25 μM.) |
| Cc1ccccc1Cn1cc(CCCC(=O)Nc2cccc(C)c2C)c2ccccc21 [BC20161] | ++ (“++” >25% increase in NMNAT2 luciferase activity at >1 μM ≤25 μM.) |
| O=C(NCc1ccco1)C1CCCc2c1c1ccccc1n2Cc1cccc(F)c1 (centres unmarked) [BC20368] | ++ (“++” >25% increase in NMNAT2 luciferase activity at >1 μM ≤25 μM.) |
| Cc1cccc(Cn2cc(CCCC(=O)NCc3ccncc3)c3ccccc32)c1 [BC20174] | ++ (“++” >25% increase in NMNAT2 luciferase activity at >1 μM ≤25 μM.) |
| COc1cccc(CNC(=O)CCc2c(C(F)F)n(Cc3cc(C)ccc3C)c3ccccc23)c1 [BC20398] | ++ (“++” >25% increase in NMNAT2 luciferase activity at >1 μM ≤25 μM.) |
| Cc1ccc(Cn2cc(C3CCN(Cc4ccccc4F)C(=O)C3)c3ccccc32)cc1 (centres unmarked) [BC20230] | ++ (“++” >25% increase in NMNAT2 luciferase activity at >1 μM ≤25 μM.) |
| COc1ccc(CCN2CCc3cn(Cc4cccc(F)c4)c4cccc(c34)C2=O)cc1 [BC20278] | + (“+” >25% increase in NMNAT2 luciferase activity at >25 μM.) |
| Cc1ccccc1Cn1cc(CCCC(=O)NC(C)Cc2ccco2)c2ccccc21 (centres unmarked) [BC20159] | ++ (“++” >25% increase in NMNAT2 luciferase activity at >1 μM ≤25 μM.) |
| Cc1cccc(CNC(=O)CCCc2cn(Cc3ccccc3F)c3ccccc23)c1 [BC20126] | ++ (“++” >25% increase in NMNAT2 luciferase activity at >1 μM ≤25 μM.) |
| Cc1ccccc1CNC(=O)CCCc1cn(Cc2ccccc2F)c2ccccc12 [BC20125] | ++ (“++” >25% increase in NMNAT2 luciferase activity at >1 μM ≤25 μM.) |
| O=C(NCC1CCCO1)N1CCc2c(c3ccccc3n2Cc2ccncc2)C1 (centres unmarked) [BC20358] | + (“+” >25% increase in NMNAT2 luciferase activity at >25 μM.) |
| Cc1ccc(CNC(=O)c2ccc3c(c2)c(C)c(C)n3Cc2ccccc2F)o1 [BC20193] | + (“+” >25% increase in NMNAT2 luciferase activity at >25 μM.) |
| Cc1cccc(CN2CCC(c3cn(Cc4cccc(F)c4)c4ccccc34)CC2=O)c1 (centres unmarked) [BC20321] | + (“+” >25% increase in NMNAT2 luciferase activity at >25 μM.) |
| Cc1ccccc1Cn1cc(CCCC(=O)NCc2ccccc2F)c2ccccc21 [BC20151] | ++ (“++” >25% increase in NMNAT2 luciferase activity at >1 μM ≤25 μM.) |
| O=C(CCCc1cn(Cc2ccccc2F)c2ccccc12)NCC1CCCO1 (centres unmarked) [BC20123] | ++ (“++” >25% increase in NMNAT2 luciferase activity at >1 μM ≤25 μM.) |
| Cc1ccccc1Cn1c(C)c(C)c2cc(C(=O)NCc3ccco3)ccc21 [BC20199] | ++ (“++” >25% increase in NMNAT2 luciferase activity at >1 μM ≤25 μM.) |
| O=C(NCc1ccccc1F)C1CCc2c(c3ccccc3n2Cc2cccc(F)c2)C1 (centres unmarked) [BC20256] | + (“+” >25% increase in NMNAT2 luciferase activity at >25 μM.) |
| Cc1ccccc1CNC(=O)CCCc1cn(Cc2cccc(F)c2)c2ccccc12 [BC20140] | + (“+” >25% increase in NMNAT2 luciferase activity at >25 μM.) |
| COc1ccc(CNC(=O)N2CCc3c(c4ccccc4n3CC(=O)NCc3ccco3)C2)cc1 [BC20330] | ++ (“++” >25% increase in NMNAT2 luciferase activity at >1 μM ≤25 μM.) |
| Cc1ccc(C)c(Cn2cc3c4c(cccc42)C(=O)N(Cc2ccccc2F)CC3)c1 [BC20269] | + (“+” >25% increase in NMNAT2 luciferase activity at >25 μM.) |
| Cc1ccc(CNC(=O)N2CCc3c(c4ccccc4n3Cc3ccncc3)C2)cc1 [BC20337] | + (“+” >25% increase in NMNAT2 luciferase activity at >25 μM.) |
